Measurements taken from the supplement of paper PMC10307832.

Assays:
Assay in all cases: relative viability (nuclei count vs DMSO), 5 days (fraction); higher = more cells survive
Metformin + Decitabine = compound: CN(C)C(=N)NC(=N)N [Metformin] + Nc1ncn([C@H]2C[C@H](O)[C@@H](CO)O2)c(=O)n1 [Decitabine] (partner 2 µM)
Outline: (§1)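 Lung cancer cell lines, seeded in 1536-well plates, were treated the following day by pin tool with a single drug or with five library-drug doses (not always all listed) in √10 steps on top of a fixed anchor-drug dose. Cells were fixed and nuclei stained in one step after 5 days, and nuclei were counted. Relative viability is the nuclei count for treated wells divided by that for vehicle wells, reported as medians of duplicate plates.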

Metformin + Phenformin = compound: CN(C)C(=N)NC(=N)N [Metformin] + N=C(N)NC(=N)NCCc1ccccc1 [Phenformin] (partner 250 µM)
Outline: as §1

Apatinib + Linsitinib = compound: N#CC1(c2ccc(NC(=O)c3cccnc3NCc3ccncc3)cc2)CCCC1 [Apatinib] + C[C@]1(O)C[C@@H](c2nc(-c3ccc4ccc(-c5ccccc5)nc4c3)c3c(N)nccn32)C1 [Linsitinib] (partner 1 µM)
Outline: as §1

Metformin + Luminespib = compound: CN(C)C(=N)NC(=N)N [Metformin] + CCNC(=O)c1noc(-c2cc(C(C)C)c(O)cc2O)c1-c1ccc(CN2CCOCC2)cc1 [Luminespib] (partner 0.01 µM)
Outline: as §1

Cell Line	relative viability (Metformin + Decitabine; first compound 10 µM)	relative viability (Metformin + Decitabine; first compound 31.62 µM)	relative viability (Metformin + Decitabine; first compound 100 µM)	relative viability (Metformin + Decitabine; first compound 316.23 µM)	relative viability (Metformin + Decitabine; first compound 1000 µM)	relative viability (Metformin + Phenformin; first compound 10 µM)	relative viability (Metformin + Phenformin; first compound 31.62 µM)	relative viability (Metformin + Phenformin; first compound 100 µM)	relative viability (Metformin + Phenformin; first compound 316.23 µM)	relative viability (Metformin + Phenformin; first compound 1000 µM)	relative viability (Apatinib + Linsitinib; first compound 0.08 µM)	relative viability (Apatinib + Linsitinib; first compound 0.253 µM)	relative viability (Apatinib + Linsitinib; first compound 0.8 µM)	relative viability (Apatinib + Linsitinib; first compound 2.53 µM)	relative viability (Apatinib + Linsitinib; first compound 8 µM)	relative viability (Metformin + Luminespib; first compound 10 µM)	relative viability (Metformin + Luminespib; first compound 31.62 µM)	relative viability (Metformin + Luminespib; first compound 100 µM)	relative viability (Metformin + Luminespib; first compound 316.23 µM)	relative viability (Metformin + Luminespib; first compound 1000 µM)
SK-MES-1	0.336	0.291	0.342	0.34	0.361	0.504	0.534	0.545	0.495	0.512	1.13	0.975	1.1	1.07	0.942	0.83	0.889	0.95	0.747	0.744
NCI-H2170	0.415	0.436	0.417	0.395	0.471	0.369	0.434	0.444	0.441	0.469						0.571	0.677	0.766	0.68	0.632
NCI-H1648		0.512	0.555	0.535	0.656															
NCI-H1915		0.263	0.255	0.245	0.269		0.357	0.384	0.352	0.365	1.15	1.02	1.08	1.06	0.921		0.724	0.835	0.785	0.795
HCC-366	0.288	0.293	0.306	0.291	0.289	0.403	0.679	0.616	0.644	0.734	0.899	0.732	0.571	0.678	0.616					
HOP-62	0.193	0.144	0.18	0.208	0.186	0.486	0.577	0.527	0.478	0.593	1.19		0.896	0.821	0.786	0.77	0.878	0.849	0.85	0.796
RERF-LC-KJ	0.687	0.703	0.505	0.556	0.514	0.489	0.466	0.456	0.428	0.499	0.908	0.908	0.821	0.845	0.757	1.11	1.15	0.979	0.808	0.864
NCI-H2347	0.532	0.597	0.605	0.573	0.578	0.384	0.363		0.422	0.404	1	0.888	1.01	0.932	0.9	0.328	1.03		0.537	0.791
PC-14	0.27	0.291	0.186	0.211	0.235	0.72	0.808	0.77	0.659	0.697	0.988	1.03	0.86	0.95	1.02	0.373	0.18	0.202	0.289	0.502
IA-LM											0.56	0.383	0.763	0.417	0.341					
NCI-H727	0.789	0.897	0.89		1.1	0.321	0.707	0.585		0.573	0.33	0.33	0.415	0.348	0.36	0.566	0.496	0.387		0.477
NCI-H1975	0.334	0.402	0.65	0.323	0.394	0.422	0.436	0.418	0.414	0.404	0.988	0.954	0.931	0.854	0.888	0.156	0.122	0.363	0.335	0.336
NCI-H2085	0.498	0.453	0.484	0.531	0.524	0.693	0.729	0.722	0.673	0.864	0.879	0.987	0.949	0.745	0.815	0.429	0.441	0.404	0.336	0.475
Calu-6											0.948	1	0.912	0.928	0.85					
LC-2-ad		0.736	0.826	0.583	0.642		0.636	0.486	0.539	0.592	0.863	0.831	0.864	0.652	0.507		0.858	0.934	0.683	0.647
SW 900	0.41	0.389		0.412	0.492	0.805	0.736	0.665	0.539	0.862						0.152	0.177	0.179	0.192	0.214
HCC-827	0.321	0.315	0.312	0.322	0.364		0.412	0.376	0.365	0.373	0.995	0.937	1.01	0.956	0.737		0.843	0.843	0.524	0.736
EMC-BAC-2	0.844	1.02		0.855	0.861	0.592	0.519	0.506	0.499	0.651	0.815	0.816	0.766	0.72	0.78	1.23	1.24	1.21	1.19	1.33
NCI-H322M	0.698	0.673	0.718	0.675	0.746	0.839	0.802	0.809	0.735	0.746	1.13	0.878	0.978	0.974	0.842	0.831	0.884	1.05	0.912	0.826
NCI-H650	0.274	0.313	0.314	0.301	0.312	0.446	0.509	0.357	0.436	0.494	0.787	0.871	0.756	0.734	0.663	0.953	1.03	1.06	0.92	1.09
